In ChEMBL document CHEMBL5696442, “Discovery of type II inhibitors of TGFβ-activated kinase 1 (TAK1) and mitogen-activated protein kinase kinase kinase kinase 2 (MAP4K2)” (J Med Chem, 2015):
Calls of active or inactive are those of the source. No cut-off for these calls is given here.

Key:
[1] = target: Tyrosine-protein kinase Blk (Homo sapiens) (UniProt P51451); assay: Inhibition of BLK (unknown origin) at 10 uM by Ambit Kinomescan binding assay relative to control
[2] = target: Serine/threonine-protein kinase PAK 4 (Homo sapiens) (UniProt O96013); assay: Inhibition of PAK4 (unknown origin) at 10 uM by Ambit Kinomescan binding assay
Serine/threonine-protein kinase PAK 4 (Homo sapiens), sequence (O96013 whole entry, looked up): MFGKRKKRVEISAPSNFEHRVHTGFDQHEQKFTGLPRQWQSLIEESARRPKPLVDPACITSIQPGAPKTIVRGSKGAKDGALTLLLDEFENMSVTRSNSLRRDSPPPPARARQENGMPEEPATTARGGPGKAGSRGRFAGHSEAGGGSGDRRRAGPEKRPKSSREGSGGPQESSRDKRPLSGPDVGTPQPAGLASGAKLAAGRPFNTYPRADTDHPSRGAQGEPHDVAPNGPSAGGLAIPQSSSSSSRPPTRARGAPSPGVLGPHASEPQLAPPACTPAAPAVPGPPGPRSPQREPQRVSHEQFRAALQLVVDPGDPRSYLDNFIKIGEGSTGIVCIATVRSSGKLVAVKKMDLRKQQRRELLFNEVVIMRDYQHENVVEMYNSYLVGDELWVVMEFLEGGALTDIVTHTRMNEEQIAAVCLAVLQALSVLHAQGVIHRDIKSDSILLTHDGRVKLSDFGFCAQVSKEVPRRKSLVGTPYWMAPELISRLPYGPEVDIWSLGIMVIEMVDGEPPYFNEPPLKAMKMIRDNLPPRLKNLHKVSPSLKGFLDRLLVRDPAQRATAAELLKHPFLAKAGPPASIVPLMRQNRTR

[3] = target: T1, Serine/threonine-protein kinase Nek1 (Homo sapiens) (UniProt Q96PY6); assay: Inhibition of NEK1 Lys2 labeling site in human A-375 cells at 5 uM by KiNativ Profiling analysis relative to control; format: cell-based
T1 sequence (whole entry): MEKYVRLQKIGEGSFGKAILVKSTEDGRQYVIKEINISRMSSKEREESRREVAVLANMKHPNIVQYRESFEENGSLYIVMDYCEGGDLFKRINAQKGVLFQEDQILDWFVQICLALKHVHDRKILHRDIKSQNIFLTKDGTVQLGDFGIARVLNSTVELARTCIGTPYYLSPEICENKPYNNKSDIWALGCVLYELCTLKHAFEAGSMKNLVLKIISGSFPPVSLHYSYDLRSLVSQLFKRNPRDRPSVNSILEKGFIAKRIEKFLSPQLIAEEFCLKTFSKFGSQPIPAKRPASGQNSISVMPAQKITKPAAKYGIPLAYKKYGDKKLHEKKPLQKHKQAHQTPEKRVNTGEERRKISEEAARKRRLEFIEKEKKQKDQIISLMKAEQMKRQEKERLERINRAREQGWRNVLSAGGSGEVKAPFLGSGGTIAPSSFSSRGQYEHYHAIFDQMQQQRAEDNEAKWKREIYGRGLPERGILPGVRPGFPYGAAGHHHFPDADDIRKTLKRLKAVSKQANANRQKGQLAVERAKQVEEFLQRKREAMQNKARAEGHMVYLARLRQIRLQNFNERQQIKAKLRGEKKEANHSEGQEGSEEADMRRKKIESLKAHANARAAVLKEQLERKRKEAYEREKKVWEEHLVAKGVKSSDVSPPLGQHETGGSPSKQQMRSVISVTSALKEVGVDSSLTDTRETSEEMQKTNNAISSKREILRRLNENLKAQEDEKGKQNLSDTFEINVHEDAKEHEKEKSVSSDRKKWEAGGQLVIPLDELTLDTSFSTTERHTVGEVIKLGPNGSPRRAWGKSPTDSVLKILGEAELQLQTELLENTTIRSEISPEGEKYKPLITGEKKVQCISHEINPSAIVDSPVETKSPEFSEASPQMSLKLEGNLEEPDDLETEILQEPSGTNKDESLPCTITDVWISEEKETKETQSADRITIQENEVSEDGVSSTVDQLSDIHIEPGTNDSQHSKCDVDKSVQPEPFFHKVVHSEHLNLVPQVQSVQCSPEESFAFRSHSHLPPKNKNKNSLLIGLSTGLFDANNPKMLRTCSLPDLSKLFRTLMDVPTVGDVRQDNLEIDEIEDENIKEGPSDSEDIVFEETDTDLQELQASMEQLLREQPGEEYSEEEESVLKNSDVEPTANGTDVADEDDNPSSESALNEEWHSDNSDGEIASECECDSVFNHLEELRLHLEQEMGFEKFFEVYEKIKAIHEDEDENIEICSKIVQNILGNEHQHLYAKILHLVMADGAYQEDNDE

[4] = target: Non-receptor tyrosine-protein kinase TYK2 (Homo sapiens) (UniProt P29597); assay: Inhibition of TYK2 domain2 ACT labeling site in human A-375 cells at 0.05 uM by KiNativ Profiling analysis relative to control; format: cell-based
[5] = target: Mitogen-activated protein kinase 14 (Homo sapiens, UniProt Q16539); assay: Inhibition of p38alpha K2 labeling site in human Huh-7 cells at 10 uM by KiNativ Profiling analysis relative to control; format: cell-based
Mitogen-activated protein kinase 14, sequence (Q16539 whole entry): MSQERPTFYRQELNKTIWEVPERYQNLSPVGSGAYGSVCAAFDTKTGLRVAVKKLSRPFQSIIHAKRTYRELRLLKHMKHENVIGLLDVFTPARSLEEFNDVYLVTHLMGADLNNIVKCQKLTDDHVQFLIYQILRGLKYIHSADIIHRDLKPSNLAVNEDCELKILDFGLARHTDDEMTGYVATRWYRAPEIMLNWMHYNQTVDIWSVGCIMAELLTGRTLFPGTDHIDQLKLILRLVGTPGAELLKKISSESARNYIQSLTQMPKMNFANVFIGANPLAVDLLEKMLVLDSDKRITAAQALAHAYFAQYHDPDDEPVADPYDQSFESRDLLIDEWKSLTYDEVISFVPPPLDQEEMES

[6] = target: Hepatocyte growth factor receptor (Homo sapiens) (UniProt P08581); assay: Inhibition of MET ACT labeling site in human Huh-7 cells at 10 uM by KiNativ Profiling analysis relative to control; format: cell-based
[7] = target: Ribosomal protein S6 kinase delta-1 (Homo sapiens) (UniProt Q96S38); assay: Inhibition of RPS6KC1 domain 1 ATP labeling site in human Huh-7 cells at 10 uM by KiNativ Profiling analysis relative to control; format: cell-based
Ribosomal protein S6 kinase delta-1 (Homo sapiens), sequence (Q96S38 whole entry, the tested form may be a part): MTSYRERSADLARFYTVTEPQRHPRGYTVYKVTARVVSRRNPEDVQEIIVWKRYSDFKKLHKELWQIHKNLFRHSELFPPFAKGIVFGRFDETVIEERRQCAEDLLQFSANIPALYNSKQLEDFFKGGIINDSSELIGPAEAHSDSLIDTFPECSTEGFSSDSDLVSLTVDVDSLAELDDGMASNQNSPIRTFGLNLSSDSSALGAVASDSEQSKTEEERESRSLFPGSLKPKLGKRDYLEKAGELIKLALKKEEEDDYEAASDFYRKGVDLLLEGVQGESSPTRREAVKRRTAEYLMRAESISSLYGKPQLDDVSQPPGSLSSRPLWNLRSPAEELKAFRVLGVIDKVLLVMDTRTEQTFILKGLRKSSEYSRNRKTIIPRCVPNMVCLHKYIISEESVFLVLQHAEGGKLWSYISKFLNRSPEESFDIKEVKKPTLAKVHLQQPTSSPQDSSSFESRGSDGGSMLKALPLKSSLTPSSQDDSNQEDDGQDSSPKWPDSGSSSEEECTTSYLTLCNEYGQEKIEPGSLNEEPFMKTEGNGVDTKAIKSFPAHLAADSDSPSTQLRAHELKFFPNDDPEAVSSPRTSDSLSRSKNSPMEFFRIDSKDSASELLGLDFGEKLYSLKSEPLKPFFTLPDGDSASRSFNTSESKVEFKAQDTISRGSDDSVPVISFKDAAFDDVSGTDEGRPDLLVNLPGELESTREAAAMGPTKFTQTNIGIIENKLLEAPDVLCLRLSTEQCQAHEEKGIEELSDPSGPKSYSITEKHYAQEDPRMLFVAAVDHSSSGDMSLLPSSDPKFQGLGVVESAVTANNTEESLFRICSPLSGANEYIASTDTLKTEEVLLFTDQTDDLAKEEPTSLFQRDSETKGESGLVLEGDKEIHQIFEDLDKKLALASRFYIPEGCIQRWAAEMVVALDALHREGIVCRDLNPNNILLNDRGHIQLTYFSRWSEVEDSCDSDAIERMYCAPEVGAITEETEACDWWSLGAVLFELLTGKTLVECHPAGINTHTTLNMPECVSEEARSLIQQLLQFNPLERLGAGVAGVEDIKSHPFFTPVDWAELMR

[8] = Inhibition of Wnk1/2/3 K2 labeling site in human Huh-7 cells at 10 uM by KiNativ Profiling analysis relative to control; conditions: condition cancer
[9] = target: Serine/threonine-protein kinase 4 (Homo sapiens) (UniProt Q13043); assay: Inhibition of MST1 Lys1 labeling site harbouring ETGQIVAIKQVPVESDLQEIIK in human Huh-7 cells at 1 uM by KiNativ Profiling analysis relative to control
Serine/threonine-protein kinase 4 (Homo sapiens), sequence (Q13043 whole entry, looked up): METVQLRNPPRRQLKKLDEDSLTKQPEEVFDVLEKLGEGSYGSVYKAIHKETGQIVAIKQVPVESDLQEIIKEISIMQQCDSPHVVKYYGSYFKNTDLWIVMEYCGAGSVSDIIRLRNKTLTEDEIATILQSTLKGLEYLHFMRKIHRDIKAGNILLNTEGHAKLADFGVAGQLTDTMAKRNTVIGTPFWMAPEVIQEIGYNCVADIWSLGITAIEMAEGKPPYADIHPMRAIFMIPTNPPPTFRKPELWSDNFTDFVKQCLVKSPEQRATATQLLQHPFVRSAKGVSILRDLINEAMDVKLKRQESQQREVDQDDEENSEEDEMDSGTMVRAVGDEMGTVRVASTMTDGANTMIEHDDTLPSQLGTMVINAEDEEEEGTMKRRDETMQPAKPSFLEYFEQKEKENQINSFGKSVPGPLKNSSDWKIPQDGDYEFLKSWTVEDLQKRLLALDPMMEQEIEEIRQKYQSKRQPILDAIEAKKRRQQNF

[10] = target: Receptor tyrosine-protein kinase erbB-2 (Homo sapiens) (UniProt P04626); assay: Inhibition of ERBB2 (unknown origin) at 1 uM by Ambit Kinomescan binding assay relative to control
Receptor tyrosine-protein kinase erbB-2 (Homo sapiens), sequence (P04626 whole entry): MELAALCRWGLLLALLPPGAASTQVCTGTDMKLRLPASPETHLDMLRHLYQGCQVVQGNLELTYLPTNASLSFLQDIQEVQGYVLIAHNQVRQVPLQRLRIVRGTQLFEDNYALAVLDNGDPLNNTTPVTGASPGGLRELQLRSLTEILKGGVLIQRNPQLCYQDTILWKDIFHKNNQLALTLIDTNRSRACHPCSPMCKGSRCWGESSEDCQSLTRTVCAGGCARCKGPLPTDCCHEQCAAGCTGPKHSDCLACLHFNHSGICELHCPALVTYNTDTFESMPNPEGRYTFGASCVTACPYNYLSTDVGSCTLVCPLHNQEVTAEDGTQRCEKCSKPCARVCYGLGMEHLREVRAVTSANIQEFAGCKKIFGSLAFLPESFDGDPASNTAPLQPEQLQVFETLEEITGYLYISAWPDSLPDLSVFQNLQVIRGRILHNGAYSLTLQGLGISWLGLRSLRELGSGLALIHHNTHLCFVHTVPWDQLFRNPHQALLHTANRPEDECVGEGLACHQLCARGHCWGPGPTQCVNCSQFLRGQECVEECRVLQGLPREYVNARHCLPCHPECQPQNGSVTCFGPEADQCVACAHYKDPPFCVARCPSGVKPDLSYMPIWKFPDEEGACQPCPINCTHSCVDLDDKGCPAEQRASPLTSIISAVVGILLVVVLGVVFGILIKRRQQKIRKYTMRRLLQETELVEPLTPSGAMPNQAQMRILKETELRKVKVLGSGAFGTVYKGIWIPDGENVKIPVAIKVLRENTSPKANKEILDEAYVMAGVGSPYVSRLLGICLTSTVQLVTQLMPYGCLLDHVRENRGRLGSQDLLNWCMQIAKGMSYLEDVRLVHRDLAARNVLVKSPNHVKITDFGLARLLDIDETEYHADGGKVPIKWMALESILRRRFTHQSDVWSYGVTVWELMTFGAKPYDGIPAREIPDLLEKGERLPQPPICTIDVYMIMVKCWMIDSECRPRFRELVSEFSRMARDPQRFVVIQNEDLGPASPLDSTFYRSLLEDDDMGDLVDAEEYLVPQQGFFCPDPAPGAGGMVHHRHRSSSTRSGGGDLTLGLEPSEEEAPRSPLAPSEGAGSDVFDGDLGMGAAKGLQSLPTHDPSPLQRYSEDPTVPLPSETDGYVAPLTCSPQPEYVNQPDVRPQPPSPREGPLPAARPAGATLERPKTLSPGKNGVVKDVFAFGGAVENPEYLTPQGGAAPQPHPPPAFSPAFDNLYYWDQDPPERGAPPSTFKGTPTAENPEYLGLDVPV

[11] = target: Serine/threonine-protein kinase 16 (Homo sapiens) (UniProt O75716); assay: Inhibition of STK16 (unknown origin) at 1 uM by Ambit Kinomescan binding assay relative to control
Serine/threonine-protein kinase 16 (Homo sapiens), sequence (O75716 whole entry): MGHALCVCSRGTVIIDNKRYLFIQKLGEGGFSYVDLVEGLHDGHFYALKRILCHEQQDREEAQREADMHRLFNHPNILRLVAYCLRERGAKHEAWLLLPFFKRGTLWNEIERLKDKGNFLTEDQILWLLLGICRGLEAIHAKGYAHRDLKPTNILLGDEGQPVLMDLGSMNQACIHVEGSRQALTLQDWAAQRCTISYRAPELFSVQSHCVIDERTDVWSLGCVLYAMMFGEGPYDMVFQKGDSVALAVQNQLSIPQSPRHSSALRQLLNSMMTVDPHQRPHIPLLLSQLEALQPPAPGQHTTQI

[12] = target: Receptor tyrosine-protein kinase erbB-3 (Homo sapiens) (UniProt P21860); assay: Inhibition of HER3/ErbB3 ACT labeling site in human A-375 cells at 5 uM by KiNativ Profiling analysis relative to control; format: cell-based
[13] = target: T2, Serine/threonine-protein kinase STK11 (Homo sapiens) (UniProt Q15831); assay: Inhibition of LKB1 Lys2 labeling site in human A-375 cells at 5 uM by KiNativ Profiling analysis relative to control; format: cell-based
T2 sequence (whole entry): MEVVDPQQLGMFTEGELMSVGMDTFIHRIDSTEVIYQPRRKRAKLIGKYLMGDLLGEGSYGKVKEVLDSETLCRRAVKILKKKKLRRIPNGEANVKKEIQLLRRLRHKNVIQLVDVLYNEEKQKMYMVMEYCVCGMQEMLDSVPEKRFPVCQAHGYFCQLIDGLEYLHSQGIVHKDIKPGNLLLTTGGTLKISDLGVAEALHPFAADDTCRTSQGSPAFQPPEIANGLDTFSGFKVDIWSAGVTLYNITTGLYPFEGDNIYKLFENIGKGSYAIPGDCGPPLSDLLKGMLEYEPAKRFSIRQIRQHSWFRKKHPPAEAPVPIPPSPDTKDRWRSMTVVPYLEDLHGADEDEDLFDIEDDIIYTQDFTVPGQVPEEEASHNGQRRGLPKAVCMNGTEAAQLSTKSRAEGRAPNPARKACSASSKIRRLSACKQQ

Tyrosine-protein kinase Blk (Homo sapiens), sequence (P51451 2-505 limits assumed): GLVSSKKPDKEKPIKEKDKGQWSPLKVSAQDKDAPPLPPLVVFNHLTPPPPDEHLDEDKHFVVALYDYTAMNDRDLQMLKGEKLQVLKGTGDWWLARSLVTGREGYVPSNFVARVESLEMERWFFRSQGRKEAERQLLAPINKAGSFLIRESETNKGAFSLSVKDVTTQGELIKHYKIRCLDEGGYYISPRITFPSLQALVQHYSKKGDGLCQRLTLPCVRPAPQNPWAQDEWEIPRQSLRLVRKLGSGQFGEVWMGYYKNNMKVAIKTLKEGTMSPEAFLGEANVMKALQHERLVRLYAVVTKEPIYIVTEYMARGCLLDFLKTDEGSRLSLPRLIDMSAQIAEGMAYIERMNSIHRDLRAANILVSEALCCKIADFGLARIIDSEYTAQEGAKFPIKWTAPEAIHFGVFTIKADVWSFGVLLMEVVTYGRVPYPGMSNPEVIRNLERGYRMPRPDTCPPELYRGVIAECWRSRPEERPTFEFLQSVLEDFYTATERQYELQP

In the case of `CCN1CCN(Cc2ccc(NC(=O)c3ccc(C)c(Oc4ccnc5[nH]ccc45)c3)cc2C(F)(F)F)CC1`, the inhibition [1] is reported as 0.45%, the inhibition [2] is reported as “inactive” and the inhibition [3] is reported as -7.1%. For the same compound, the inhibition [4] was -4.4%, the inhibition [5] was 6.8% and the inhibition [6] was -8%. It also gave an inhibition [7] of 15.4% and an inhibition at 10 µM [8] of 7.8%.

With `CNc1cc(Oc2cc(C(=O)Nc3cc(N4CCN(C)CC4)cc(C(F)(F)F)c3)ccc2C)ncn1` the inhibition [9] was 8.9%.

In the case of `CCN1CCN(Cc2ccc(NC(=O)c3ccc(C)c(/C=C/c4cnc5[nH]ccc5c4OC)c3)cc2C(F)(F)F)CC1`, the inhibition [10] is reported as 19%, the inhibition [11] is reported as 100% and the inhibition [12] is reported as -3.7%. The inhibition [13] was 28.7%.
